Results taken from ChEMBL document CHEMBL5674860, “Optimized Dual-Glo Assay to identify co-culture-induced drug vulnerabilities in 3D CRC models” (2024).

Assays:
Format in all cases: functional, Homo sapiens
Parameters in all cases: dose or concentration left out as unconfirmed
Colon cancer organoid [1] = assay: Optimized Dual-Glo assay to identify co-culture induced drug vulnerabilities using donated chemical probes and chemogenomics kinase set in O06 CRC organoid and F06 CAF mono and co-culture. […] Cell viability is reported both mono and co-culture models.
Colon cancer organoid [2] = assay: Optimized Dual-Glo assay to identify co-culture induced drug vulnerabilities using donated chemical probes and chemogenomics kinase set in O14 CRC organoid and F14 CAF mono and co-culture. […] Cell viability is reported both mono and co-culture models.
Colon cancer organoid [3] = assay: Optimized Dual-Glo assay to identify co-culture induced drug vulnerabilities using donated chemical probes and chemogenomics kinase set in O20 CRC organoid and F20 CAF mono and co-culture. […] Cell viability is reported both mono and co-culture models.
[4] = Culture type Co-Culture, Transduced with Lucferase2-P2A-EGFP lentivirus
[5] = Culture type Co-Culture, Transduced with Renilla-dsRed lentivirus
[6] = Culture type Mono-Culture, Transduced with Lucferase2-P2A-EGFP lentivirus
[7] = Culture type Mono-Culture, Transduced with Renilla-dsRed lentivirus

Row | SMILES | Cell Viability (Colon cancer organoid [1]; [4]) [%] | Cell Viability (Colon cancer organoid [1]; [5]) [%] | Cell Viability (Colon cancer organoid [1]; [6]) [%] | Cell Viability (Colon cancer organoid [1]; [7]) [%] | Cell Viability (Colon cancer organoid [2]; [4]) [%] | Cell Viability (Colon cancer organoid [2]; [5]) [%] | Cell Viability (Colon cancer organoid [2]; [6]) [%] | Cell Viability (Colon cancer organoid [2]; [7]) [%] | Cell Viability (Colon cancer organoid [3]; [4]) [%] | Cell Viability (Colon cancer organoid [3]; [5]) [%] | Cell Viability (Colon cancer organoid [3]; [6]) [%] | Cell Viability (Colon cancer organoid [3]; [7]) [%]
1 | CN(C(=O)c1cnn2cccnc12)c1cc2c(cc1N1CCOCC1)C(=O)N(C[C@@H](F)C(C)(C)O)C2 | 93.6773 | 65.3185 | 72.0703 | 97.8487 | 89.5893 | 113.489 | 112.103 | 103.195 | 85.0124 | 89.8275 | 94.3235 | 98.269
2 | O=C(O)c1ccc(-c2c[nH]c3ncc(-c4ccccc4)cc23)cc1C1CCCC1 [GSK-650394] | 150.298 | 125.274 | 142.061 | 114.363 | 84.2987 | 94.4983 | 153.467 | 103.115 | 93.9419 | 129.576 | 65.3151 | 121.845
3 | O=C(NCc1ncc(C(F)(F)F)cc1Cl)c1ccc2c(c1)C1(CCS(=O)(=O)CC1)[C@@H](C1CC1)N2S(=O)(=O)c1ccc(F)cc1 [BAY-786] | 112.409 | 138.316 | 97.377 | 88.5192 | 75.9207 | 99.8085 | 94.4221 | 104.267 | 102.274 | 106.984 | 104.026 | 100.592
4 | CC[C@H](CO)Nc1nc(NCc2ccccc2)c2ncn(C(C)C)c2n1 [SELICICLIB] | 93.234 | 112.199 | 108.084 | 105.93 | 135.109 | 107.454 | 106.101 | 84.912 | 126.322 | 75.3934 | 94.0529 | 97.9285
5 | CN(C)CCCOc1ccc(-c2cc(NCCCn3cccn3)nc(S(C)(=O)=O)n2)cc1 | 126.468 | 129.443 | 108.628 | 116.281 | 98.5657 | 111.103 | 109.089 | 94.6282 | 144.301 | 126.832 | 110.606 | 92.2355
6 | CC(=O)Nc1ncc(CN2CCC[C@H](Cc3cc(C)nc(C)c3)C2)s1 [JNJ-65355394] | 144.109 | 117.923 | 95.1702 | 105.247 | 87.2976 | 97.4656 | 96.7484 | 85.3088 | 88.5022 | 103.797 | 76.2761 | 119.778
7 | Cl.Cl.c1ccc([C@@H]2C[C@H]2NC2CCNCC2)cc1 | 78.4875 | 97.0217 | 85.9094 | 106.355 | 82.3558 | 127.479 | 88.7328 | 113.061 | 42.5951 | 97.3617 | 75.8314 | 98.3245
8 | C[C@H](c1ccc(F)cc1)N(Cc1cccc(C(=O)O)c1)C(=O)c1cnc2ccccc2c1 [PF-05105679] | 133.625 | 152.049 | 106.722 | 91.4083 | 81.4426 | 118.111 | 74.3119 | 99.7573 | 143.937 | 111.508 | 109.64 | 98.1235
9 | Cc1nccc(COC(=O)N2C[C@@H]3[C@@H](CNC(=O)c4ccc5[nH]nnc5c4)[C@@H]3C2)n1 [BI 3017] | 136.883 | 128.292 | 95.2629 | 74.0867 | 93.935 | 119.587 | 137.729 | 94.2589 | 107.028 | 99.2728 | 143.356 | 100.924
10 | Nc1ccc(C(=O)Nc2cccc(-c3nc(N4CCOCC4)c4oc5ncccc5c4n3)c2)cn1 | 78.745 | 81.5262 | 28.4733 | 93.3288 | 67.7704 | 105.191 | 42.3601 | 61.5192 | 142.389 | 75.1771 | 60.1963 | 81.7819
11 | O=C(N1CCS(=O)(=O)CC1)N1C[C@H](c2ccc(OC(F)(F)F)cc2)C[C@H](c2nc(C3CC3)no2)C1 [BAY-386] | 131.392 | 144.172 | 106.882 | 101.013 | 116.117 | 119.771 | 94.8331 | 98.6833 | 61.9652 | 114.29 | 99.9064 | 89.9943
12 | CC1CCN(c2ccnc(NCc3cn(C)cn3)n2)CC1 [TP-040] | 72.882 | 83.2209 | 105.865 | 110.509 | 87.8979 | 100.433 | 106.891 | 94.952 | 75.5826 | 95.0735 | 105.645 | 103.982
13 | CN(C)C(=O)Cn1cc(-c2nc(C3(c4ccc(-c5cnc(N)nc5)cc4)CC3)no2)cn1 [BI 0153] | 114.895 | 116.335 | 110.704 | 85.1331 | 85.1631 | 102.426 | 124.477 | 95.7431 | 119.435 | 91.9766 | 120.102 | 113.624
14 | CCCCNNC(=O)c1ccc(Br)cc1 | 113.204 | 110.004 | 101.234 | 117.719 | 82.2147 | 109.67 | 123.977 | 94.4376 | 131.228 | 114.511 | 127.902 | 88.6471
15 | COc1cc(Nc2ncc3c(n2)-c2ccc(Cl)cc2C(c2c(F)cccc2OC)=NC3)ccc1C(=O)O [ALISERTIB] | 20.0499 | 286.415 | 8.923 | 120.563 | 16.1373 | 168.728 | 26.2121 | 103.392 | 6.089 | 322.747 | 10.9419 | 116.531
16 | CN(C)C(=O)/C(C#N)=C/c1ccc(-c2nc3cnc4c(ccn4C)c3n2C2CCCCC2)o1 | 100.774 | 167.563 | 117.157 | 133.695 | 95.1732 | 102.012 | 142.854 | 112.554 | 49.7098 | 127.191 | 136.658 | 125.979
17 | CN1CCN(C(=O)C(C)(C)c2ccc(C(=O)Nc3cn4cc(-c5ccncc5)ccc4n3)cc2)CC1 [T3-CLK] | 42.8408 | 189.116 | 24.3767 | 109.981 | 26.2693 | 164.302 | 35.9707 | 93.5791 | 17.3495 | 291.942 | 28.5908 | 98.0167
18 | COc1cc(-c2cn(C)c(=O)c3cnccc23)c(OC)cc1CN(C)C | 79.252 | 108.934 | 73.0791 | 96.9165 | 86.2085 | 136.409 | 67.8836 | 114.194 | 61.2069 | 139.676 | 83.2777 | 82.5544
